Assays:
HS746T cell line [1] = test: Cell viability assay (Cell Counting Kit-8), HS746T; assay type: cell-based, human; settings: for antitumor effect (number of living cells) / antitumor effect (cell viability): treatment alone, 48 hours; for antitumor effect (number of living cells): cisplatin 5 and 10 μM, compounds 5 and 10 μg/ml, FIGS. 7A and 7B; for antitumor effect (cell viability): HS746T stem-like cells, various concentrations, FIG. 1
Experimental: (§1) In order to evaluate the ability to inhibit the growth or metastasis of cancer cells or cancer stem cells in the examples according to the present invention, the present inventors obtained MKN1 and HS746T, which are cell lines having human gastric cancer stem cell characteristics, and SNU601, YCC7 and NCIN87 cells, which are human gastric cancer cell lines, from the American Type Culture Collection (ATCC) and the Korean Cell Line Bank (KCRB). The cell lines were cultured in different culture media and culture conditions according to ATCC's or KCRB's guidelines. The MKN1, SNU601, and NCIN87 cell lines were cultured in RPMI1640 medium containing 10% fetal bovine serum (FBS), 2 mM L-glutamine, 100 U/ml penicillin and 100 μg/ml streptomycin, and the HS746T and YCC7 Cell lines were cultured in DMEM containing 10% FBS, 2 mM L-glutamine, 100 U/ml penicillin and 100 μg/ml streptomycin. All the cell lines were cultured at 37° C. under 5% CO2, and subjected to a mycoplasma contamination test.
(§2) Each of the cell lines cultured in the Preparation Example was dispensed into a well plate at a density of 1×10^4 cells per well, and cultured overnight at 37° C. under 5% CO2. Then, the HS746T and MKN1 cell lines, which are gastric cancer stem-like cells, and the YCC7 and NCIN87 cell lines, which are gastric cancer cells, were treated with various concentrations of each of cisplatin (CDDP), which is an anticancer drug currently frequently used in the treatment of gastric cancer patients, and the compound CCG-232601 which is an MRTF-A inhibitor. 100 μL of each cell culture and 10 μL of reaction buffer (CCK) were mixed together, placed in a 96-well plate, and incubated for 1 hour at room temperature, and then the absorbance at a wavelength of 450 nm was measured using a spectrophotometer (Synergy HTX Multi-Reader, BioTek, Winooski, VT, USA). At the same time, the number of cells in each sample was measured with a cell viability assay kit (Cell Counting Kit-8), and the measured value was converted so that the measured value for the same number of cells in each sample could be compared with the number of cells in the negative control group. The experimental results presented are the mean values of the repeated experiments.
The present inventors attempted to further confirm the therapeutic effects of the compounds CCG-222740 and CCG-203971, which are compounds other than the compound CCG-232601 corresponding to the MRTFA/SRF inhibitors, against cancer stem cells. As reviewed in Example 1 above, it has been confirmed that the gastric cancer cell line HS746T is of a stem cell-like gastric cancer type, and thus is resistant to the anticancer drug cisplatin. The HS746T cell line was treated with cisplatin and the compounds CCG-222740 and CCG-203971 corresponding to MRTFA/SRF inhibitors. For cell treatment, cisplatin was used at concentrations of 0 μM, 5 μM and 10 μM, and the compound CCG-222740 or CCG-203971 was used at concentrations of 0 μg/ml, 5 μg/ml and 10 μg/ml. The control group was treated with the same amount of DMSO as the compound used for each experimental group. After 48 hours, the number of living cells was measured using a cell viability assay kit (Cell Counting Kit-8), and the results are shown in FIGS. 7A and 7B.

[2] = test system: human colonic myofibroblasts; settings: cited from earlier work
[3] = test system: lung fibrosis lung fibroblasts; settings: cited from earlier work
[4] = test system: murine model of skin injury; settings: cited from earlier work
[5] = test system: preclinical model of fibrosis; settings: cited from earlier work
[6] = test system: alpha smooth muscle actin protein; settings: cited from earlier work
MKN1 cell line [7] = test: Transwell invasion assay, MKN1; assay type: cell-based, human; settings: MKN1, 10 μg/ml, 12 hours, Matrigel transwell, FIG. 3
Experimental: (§3) Transwell invasion assay was performed with or without CCG-232601 treatment. The invasion ability was measured using a 6.5-mm transwell with an 8.0 μm-pore polycarbonate membrane insert (Corning) after coating with Matrigel (Corning) diluted to 0.67 μg/μl with serum-free medium. Then, cells (2×10^4 cells/well) were suspended in 200 μL of a serum-free medium with vehicle or in 10 μg/ml of CCG-232601, and 1,000 μL of culture medium containing 10% FBS was added to the lower chamber. After 12 hours, the migrated cells were stained with 0.2% crystal violet and observed under an optical microscope. The average number of cells that penetrated the membrane was calculated with ImageJ (NIH) from three randomly selected high-power fields and from two independent experiments, and the results are shown in FIG. 3.

MKN1 cell line [8] = test: Oxygen consumption rate and extracellular acidification rate (Seahorse), MKN1; assay type: cell-based, human
Experimental: (§4) In particular, in order to confirm that the compound CCG-232601 has an excellent inhibitory effect on cancer stem cell growth, the oxygen consumption rates (OCRs) and extracellular acidification rates (ECARs) of the stem-like cell lines HS746T and MKN1 having high resistance to metabolic stress were measured and the results are shown in FIG. 2. More specifically, each of the cell lines was seeded in Seahorse normal culture medium at 70 to 80% confluency, and mitochondrial oxidation and glycolytic activity were measured by measuring oxygen consumption rate (OCR, pmol/min/μg protein) and extracellular acidification rate (ECAR, mpH/min/μg protein) using an XF96 or XFp extracellular flux analyzer (Agilent). Mitochondrial oxidation ability of cells pretreated for 1 hour with or without 10 mM β-HB (Sigma) was evaluated using the Seahorse XF mito stress kit (Agilent). To address changes in oxidation and glycolysis upon treatment with CCG-232601, cells were pretreated overnight with vehicle or the inhibitor, and finally 10 mM β-hydroxybutyrate was added during the first injection.

YCC7 cell line = test: Cell viability assay (Cell Counting Kit-8), YCC7; assay type: cell-based, human; settings: YCC7 gastric cancer cells, treatment alone, various concentrations, 48 hours, FIG. 1
Experimental: (§5) In order to evaluate the ability to inhibit the growth or metastasis of cancer cells or cancer stem cells in the examples according to the present invention, the present inventors obtained MKN1 and HS746T, which are cell lines having human gastric cancer stem cell characteristics, and SNU601, YCC7 and NCIN87 cells, which are human gastric cancer cell lines, from the American Type Culture Collection (ATCC) and the Korean Cell Line Bank (KCRB). The cell lines were cultured in different culture media and culture conditions according to ATCC's or KCRB's guidelines. […]
(§6) Each of the cell lines cultured in the Preparation Example was dispensed into a well plate at a density of 1×10^4 cells per well, and cultured overnight at 37° C. under 5% CO2. […] 100 μL of each cell culture and 10 μL of reaction buffer (CCK) were mixed together, placed in a 96-well plate, and incubated for 1 hour at room temperature, and then the absorbance at a wavelength of 450 nm was measured using a spectrophotometer (Synergy HTX Multi-Reader, BioTek, Winooski, VT, USA). At the same time, the number of cells in each sample was measured with a cell viability assay kit (Cell Counting Kit-8), and the measured value was converted so that the measured value for the same number of cells in each sample could be compared with the number of cells in the negative control group. […]

HS746T cell line [9] = test: Oxygen consumption rate and extracellular acidification rate (Seahorse), HS746T; assay type: cell-based, human
Experimental: as §4

[10] = test system: bleomycin-induced dermal fibrosis; settings: administered orally to mice; cited from earlier work
NCIN87 cell line = test: Cell viability assay (Cell Counting Kit-8), NCIN87; assay type: cell-based, human; settings: NCIN87 gastric cancer cells, treatment alone, various concentrations, 48 hours, FIG. 1
Experimental: as §5, §6

MKN1 cell line [11] = test: Cell viability assay (Cell Counting Kit-8), MKN1; assay type: cell-based, human; settings: for antitumor effect (cell viability): MKN1 stem-like cells, treatment alone, various concentrations, 48 hours, FIG. 1
Experimental: as §1, §2
Accordingly, in order to evaluate the effect of co-administration of the compound CCG-232601, the survival and growth inhibitory effects of administration of CCG-232601 and cisplatin (CDDP) alone or in combination to the MKN1 cell line were evaluated using a cell viability assay kit (Cell Counting Kit-8; CCK-8). In order to evaluate the effect of administration in combination compared to that of administration alone, 5 μg/ml of CCG-232601 was firstly administered to the MKN1 cell line, and after 24 hours, 5 μM cisplatin (CDDP) was secondarily administered. After 24 hours therefrom, the results were checked with a cell viability analysis kit (CCK-8 assay).

HS746T cell line [12] = test: Transwell invasion assay, HS746T; assay type: cell-based, human; settings: 10 μg/ml, 12 hours, Matrigel transwell, FIG. 3
Experimental: as §3

O=C(Nc1ccc(Cl)cc1)C1CCCN(C(=O)c2cccc(-c3ccco3)c2)C1 (centres unmarked) [CCG-203971, N-(4-chlorophenyl)-1-(3-(furan-2-yl)benzoyl)piperidine-3-carboxamide]
antitumor effect (number of living cells) (HS746T cell line [1]; HS746T): significantly improved antitumor effect
matrix stiffness and TGF-β-mediated fibrogenesis [2]: inhibits both matrix stiffness and TGF-β-mediated fibrogenesis
anti-fibrotic activity [3]: exhibits anti-fibrotic activity
anti-fibrotic activity [4]: exhibits anti-fibrotic activity

O=C(Nc1ccc(Cl)cc1)C1CN(C(=O)c2cccc(-c3ccco3)c2)CC(F)(F)C1 (centres unmarked) [CCG-222740, N-(4-Chlorophenyl)-5,5-difluoro-1-(3-(furan-2-yl)benzoyl)piperidine-3-carboxamide]
antitumor effect (number of living cells) (HS746T cell line [1]; HS746T): significantly improved antitumor effect
scar tissue formation [5]: effectively prevent scar tissue formation
expression of alpha smooth muscle actin protein [6]: prevent the expression of alpha smooth muscle actin protein

O=C(Nc1ccc(Cl)cc1)C1CN(C(=O)c2cccc(-c3ccncc3)c2)CC(F)(F)C1 (centres unmarked) [CCG-232601, N-(4-chlorophenyl)-5,5-difluoro-1-(3-(pyridin-4-yl)benzoyl)piperidine-3-carboxamide]
antitumor effect (cell viability) (HS746T cell line [1]): significantly improved antitumor effects
invasion and metastasis (cells that penetrated the membrane) (MKN1 cell line [7]): reduced the invasion and metastasis
extracellular acidification rate (ECAR) versus oxygen consumption rate (OCR) (MKN1 cell line [8]; MKN1, pretreated overnight, 10 mM β-hydroxybutyrate at first injection, FIG. 2): the glycolysis ECAR was higher than OCR
sensitivity to glucose deprivation (MKN1 cell line [8]; gastric cancer stem cells (MKN1)): greatly increased the sensitivity to glucose deprivation
antitumor effect (cell viability) (YCC7 cell line): exhibited antitumor effects
extracellular acidification rate (ECAR) versus oxygen consumption rate (OCR) (HS746T cell line [9]; HS746T, pretreated overnight, 10 mM β-hydroxybutyrate at first injection, FIG. 2): the glycolysis ECAR was higher than OCR
sensitivity to glucose deprivation (HS746T cell line [9]; gastric cancer stem cells (HS746T)): greatly increased the sensitivity to glucose deprivation
development of bleomycin-induced dermal fibrosis [10]: suppress the development of bleomycin-induced dermal fibrosis
antitumor effect (cell viability) (NCIN87 cell line): exhibited antitumor effects
cell viability lower than in the negative control group and the cisplatin-only group (MKN1 cell line [11]; MKN1, 5 μg/ml administered alone, CCK-8, FIG. 6): 20%
antitumor effect (cell viability) (MKN1 cell line [11]): significantly improved antitumor effects
invasion and metastasis (cells that penetrated the membrane) (HS746T cell line [12]): reduced the invasion and metastasis

N.N.[Cl][Pt][Cl] [cisplatin]
antitumor effect (cell viability) (HS746T cell line [1]): did not exhibit antitumor effects
drug sensitivity lower than that of the cancer cell lines (HS746T cell line [1]; HS746T versus SNU601 and NCIN87, cisplatin, FIG. 4): 20 to 40%
drug sensitivity upon cisplatin (CDDP) treatment (HS746T cell line [1]; HS746T, FIG. 4): exhibited resistance to cisplatin
antitumor effect (number of living cells) (HS746T cell line [1]; HS746T): did not exhibit an antitumor effect
drug sensitivity upon cisplatin (CDDP) treatment (MKN1 cell line [11]; MKN1, FIG. 4): exhibited resistance to cisplatin
antitumor effect (cell viability) (MKN1 cell line [11]): did not exhibit antitumor effects
drug sensitivity lower than that of the cancer cell lines (MKN1 cell line [11]; MKN1 versus SNU601 and NCIN87, cisplatin, FIG. 4): 20 to 40%

— patent US12653816B2, “Composition for inhibiting growth of cancer stem cells” (INDUSTRY-ACADEMIC COOPERATION FOUNDATION, YONSEI UNIVERSITY, priority 2020, dated 2026)
